US9248117B2, “Substituted N,N-dihaloamines as antimicrobials” (priority 2010, dated 2016)
≈ marks a conversion by molar mass, not a printed value.

What was measured:
[1] = test system: E. coli 25922; assay: MBC/MFC against E. coli 25922; type: cell-based; conditions: Escherichia coli
[2] = test system: S. aureus 29213; assay: MBC/MFC against S. aureus 29213; type: cell-based; conditions: Staphylococcus aureus
[3] = test system: C. albicans 10231; assay: MBC/MFC against C. albicans 10231; type: cell-based; conditions: Candida albicans
[4] = test system: L929 cells; assay: CT50 cytotoxicity in L929 cells; conditions: pH 7 phosphate

SMILES | MBC ([1]; pH 4 acetate, Table 3) | MBC ([1]; pH 7 phosphate, Table 3) | MBC ([2]; pH 4 acetate, Table 3) | MBC ([2]; pH 7 phosphate, Table 3) | MFC ([3]; pH 4 acetate, Table 3) | MFC ([3]; pH 7 phosphate, Table 3) | CT50 L929 cells ([4]; Table 3) | MBC ([1]; pH 4 acetate, Table 4) | MBC ([1]; pH 7 phosphate, Table 4) | MBC ([2]; pH 4 acetate, Table 4) | MBC ([2]; pH 7 phosphate, Table 4) | MFC ([3]; pH 4 acetate, Table 4) | MFC ([3]; pH 7 phosphate, Table 4) | CT50 L929 cells ([4]; Table 4)
COCCOCCOCCOCCS(=O)(=O)CCC(C)(C)N(Cl)Cl [Compound 38-147, N,N-dichloro-2-methyl-4-(2-(2-(2-(2-methoxyethoxy)ethoxy)ethoxy)ethylsulfonyl)butan-2-amine] | 8 µg/mL (≈ 19.5 µM) | 256 µg/mL (≈ 624 µM) | 8 µg/mL (≈ 19.5 µM) | 128 µg/mL (≈ 312 µM) | > 256 µg/mL | 2050 µg/mL (≈ 4990 µM) | 0.039 mM | – | – | – | – | – | – | –
CC(C)(CC[N+](C)(C)CCCO)N(Cl)Cl [Compound 38-151, 3-(dichloroamino)-N-(3-hydroxypropyl)-N,N,3-trimethylbutan-1-aminium] | 4 µg/mL | 1020 µg/mL | 4 µg/mL | > 2050 µg/mL | 64 µg/mL | > 1020 µg/mL | 0.12 mM | – | – | – | – | – | – | –
COCCN1C(=O)C(C)(C)N(Cl)C1(C)C [Compound 39-01, 1-chloro-3-(2-methoxyethyl)-2,2,5,5-tetramethylimidazolidin-4-one] | – | – | – | – | – | – | – | 2 µg/mL (≈ 8.52 µM) | 128 µg/mL (≈ 545 µM) | 2 µg/mL (≈ 8.52 µM) | 128 µg/mL (≈ 545 µM) | 8 µg/mL (≈ 34.1 µM) | 256 µg/mL (≈ 1090 µM) | 0.08 mM
COCCOCCOCCN1C(=O)C(C)(C)N(Cl)C1(C)C [Compound 39-04, 1-Chloro-3-(2-(2-(2-methoxyethoxy)ethoxy)ethyl)-2,2,5,5-tetramethylimidazolidin-4-one] | – | – | – | – | – | – | – | 2 µg/mL (≈ 6.2 µM) | 256 µg/mL (≈ 793 µM) | 2 µg/mL (≈ 6.2 µM) | 256 µg/mL (≈ 793 µM) | 16 µg/mL (≈ 49.6 µM) | 1020 µg/mL (≈ 3170 µM) | 0.14 mM
COCCOCCOCCOCCN1C(=O)C(C)(C)N(Cl)C1(C)C [Compound 39-12, 1-chloro-2,2,5,5-tetramethyl-3-(2,5,8,11-tetraoxatridecan-13-yl)imidazolidin-4-one] | – | – | – | – | – | – | – | 8 µg/mL (≈ 21.8 µM) | 256 µg/mL (≈ 698 µM) | 8 µg/mL (≈ 21.8 µM) | 256 µg/mL (≈ 698 µM) | 16 µg/mL (≈ 43.6 µM) | > 1020 µg/mL | 0.18 mM
CC1(C)C(=O)N(CC(O)CO)C(C)(C)N1Cl (stereo not shown) [Compound 39-27, 1-chloro-3-(2,3-dihydroxypropyl)-2,2,5,5-tetramethylimidazolidin-4-one] | – | – | – | – | – | – | – | 4 µg/mL (≈ 16 µM) | 512 µg/mL (≈ 2040 µM) | 4 µg/mL (≈ 16 µM) | 1020 µg/mL (≈ 4080 µM) | 16 µg/mL (≈ 63.8 µM) | > 2050 µg/mL | 0.14 mM
COCCOCCOCC[N+]1(C)CC(C)(C)N(Cl)C(C)(C)C1.[Cl-] [Compound 39-106, 4-chloro-1-(2-(2-(2-methoxyethoxy)ethoxy)ethyl)-1,3,3,5,5-pentamethylpiperazin-1-ium chloride] | – | – | – | – | – | – | – | 16 µg/mL | 256 µg/mL | 32 µg/mL | > 512 µg/mL | 64 µg/mL | > 512 µg/mL | 0.24 mM
CC1(C)CN(CCO)C(=O)C(C)(C)N1Cl [Compound 39-108, 4-chloro-1-(2-hydroxyethyl)-3,3,5,5-tetramethylpiperazin-2-one] | – | – | – | – | – | – | – | 1 µg/mL (≈ 4.26 µM) | 32 µg/mL (≈ 136 µM) | 2 µg/mL (≈ 8.52 µM) | 128 µg/mL (≈ 545 µM) | 8 µg/mL (≈ 34.1 µM) | 64 µg/mL (≈ 273 µM) | 0.1 mM
COCCOCCOCC[N+](C)(C)CCN1CC(C)(C)N(Cl)C1=O [Compound 39-110, 2-(3-chloro-4,4-dimethyl-2-oxoimidazolidin-1-yl)-N-(2-(2-(2-methoxyethoxy)ethoxy)ethyl)-N,N-dimethylethanaminium 4-methylbenzenesulfonate] | – | – | – | – | – | – | – | 128 µg/mL | 1020 µg/mL | 128 µg/mL | 2050 µg/mL | 256 µg/mL | > 2050 µg/mL | 3.9 mM
COCCOCCN1C(=O)C(C)(C)N(Cl)C1(C)C [Compound 39-112, 1-chloro-3-(2-(2-methoxyethoxy)ethyl)-2,2,5,5-tetramethylimidazolidin-4-one] | – | – | – | – | – | – | – | 4 µg/mL (≈ 14.3 µM) | 128 µg/mL (≈ 459 µM) | 8 µg/mL (≈ 28.7 µM) | 128 µg/mL (≈ 459 µM) | 8 µg/mL (≈ 28.7 µM) | 1020 µg/mL (≈ 3670 µM) | 0.16 mM
COCCOCCOCCCN1C(=O)C(C)(C)N(Cl)C1(C)C [Compound 39-114, 1-chloro-3-(3-(2-(2-methoxyethoxy)ethoxy)propyl)-2,2,5,5-tetramethylimidazolidin-4-one] | – | – | – | – | – | – | – | 8 µg/mL (≈ 23.7 µM) | 256 µg/mL (≈ 760 µM) | 4 µg/mL (≈ 11.9 µM) | 256 µg/mL (≈ 760 µM) | 8 µg/mL (≈ 23.7 µM) | > 1020 µg/mL | 0.24 mM
COCCOCCOCCOCCOCCOCCOCCOCCOCCOCCOCCOCCOCCOCCN1C(=O)C(C)(C)N(Cl)C1(C)C [Compound 39-116, 1-chloro-2,2,5,5-tetramethyl-3-(2,5,8,11,14,17,20,23,26,29,32,35,38,41-tetradecaoxatritetracontan-43-yl)imidazolidin-4-one] | – | – | – | – | – | – | – | 16 µg/mL (≈ 19.8 µM) | 512 µg/mL (≈ 634 µM) | 16 µg/mL (≈ 19.8 µM) | 1020 µg/mL (≈ 1270 µM) | 128 µg/mL (≈ 159 µM) | > 2050 µg/mL | 4.1 mM
COCCOCCOCCOCCOCCOCCOCCOCCOCCOCCOCCOCCOCCOCCOCCOCCOCCOCCOCCOCCOCCOCCOCCOCCOCCOCCOCCOCCOCCOCCOCCOCCOCCOCCOCCOCCOCCOCCOCCN1C(=O)C(C)(C)N(Cl)C1(C)C [Compound 39-118, 1-chloro-2,2,5,5-tetramethyl-3-(2,5,8,11,14,17,20,23,26,29,32,35,38,41,44, 47,50,53,56,59,62,65,68,71,74,77,80,83,86,89, 92,95,98,101,104,107,110,113,116-nonatriacontaoxaoctadecahectan-118-yl)imidazolidin-4-one] | – | – | – | – | – | – | – | 32 µg/mL (≈ 16.8 µM) | 2050 µg/mL (≈ 1070 µM) | 8 µg/mL (≈ 4.19 µM) | 4100 µg/mL (≈ 2150 µM) | 256 µg/mL (≈ 134 µM) | > 2050 µg/mL | 11.3 mM
CC1(C)C(CO)OC(=O)N1Cl (stereo not shown) [Compound 39-122, 3-chloro-5-(hydroxymethyl)-4,4-dimethyloxazolidin-2-one] | – | – | – | – | – | – | – | 2 µg/mL (≈ 11.1 µM) | 2 µg/mL (≈ 11.1 µM) | 4 µg/mL (≈ 22.3 µM) | 4 µg/mL (≈ 22.3 µM) | > 512 µg/mL | 1020 µg/mL (≈ 5700 µM) | 0.14 mM
CN1CC(C)(CO)N(Cl)C1=O (stereo not shown) [Compound 39-124, 3-chloro-4-(hydroxymethyl)-1,4-dimethylimidazolidin-2-one] | – | – | – | – | – | – | – | 16 µg/mL (≈ 89.6 µM) | 8 µg/mL (≈ 44.8 µM) | 16 µg/mL (≈ 89.6 µM) | 32 µg/mL (≈ 179 µM) | 8 µg/mL (≈ 44.8 µM) | > 1020 µg/mL | 0.33 mM
CC1(C)C(=O)N(CCCCO)C(C)(C)N1Cl [Compound 39-125, 1-chloro-3-(4-hydroxybutyl)-2,2,5,5-tetramethylimidazolidin-4-one] | – | – | – | – | – | – | – | 2 µg/mL (≈ 8.04 µM) | 32 µg/mL (≈ 129 µM) | 2 µg/mL (≈ 8.04 µM) | 256 µg/mL (≈ 1030 µM) | 128 µg/mL (≈ 515 µM) | > 1020 µg/mL | 2.21 mM
